The test system of assay [1] is T-iPS-T cells. Briefly: Number of viable T-iPS-T cells under feeder-free culture (CD3/CD28 Dynabeads, Cell Count Reagent SF, absorbance 450 nm/650 nm). The class given is cell-based, human. As to conditions: for number of viable cells (OD value): T-iPS-T cells after 1st expansion, DMSO control 0.225 ± 0.017. The method, then: T-iPS-T cells (1,500 cells/well) after 1st expansion were seeded and cultured in RPMI-1640 medium (SIGMA, R8758) supplemented with 15% FBS (CORNING, 35-076-CV, 35076104R), 1% PSG (SIGMA, G1146), PAA (50 μg/mL, Nacalai Tesque, 03420-52), ITS-G, IL-7 (5 ng/mL), IL-12 (50 ng/mL), IL-15 (5 ng/mL), IL-18 (50 ng/mL), IL-21 (20 ng/mL), and z-VAD-fmk (10 μM). The cells were stimulated by adding CD3/CD28 Dynabeads (Gibco, 11131D, the “Dynabeads” is a registered trademark) (4,500 beads/well) thereto, and 1,080 compounds [MedChemExpress, Apoptosis Compound Library (HY-L003), Cell Cycle/DNA Damage Compound Library (HY-L004), JAK/STAT Compound Library (HY-L008), MAPK Compound Library (HY-L010), NF-kappaB Compound Library (HY-L014), PI3K/Akt/mTOR Compound Library (HY-L015), and Wnt/Hedgehog/Notch Compound Library (HY-L020)] were added thereto (one type per well) at a final concentration of 1 μM, and then, the cells were cultured at 37° C. under 5% CO2.
DMSO (0.1%) that is a solvent for the compound was used as a control. After 6 days, the number of viable cells was measured using Cell Count Reagent SF (Nacalai Tesque, 07553) and a microplate reader (SoftMax Pro 5.X, Molecular Devices, 450 nm/650 nm).
A calibration curve for cell number was set as follows. When measuring the number of viable cells, 12-point serial dilution was performed for the same cells as those used in the screening, and the cells were seeded (0 to 1,536,000 cells/well) in RPMI-1640 medium supplemented with 15% FBS, 1% PSG, PAA, ITS-G, IL-7 (5 ng/mL) and IL-15 (5 ng/mL). The number of viable cells was measured together with the screening samples, and a calibration curve for WST-8 assay was formed.
In order to further evaluate the results obtained in Example 4, reproducibility was evaluated. As a method therefor, the same method as in Example 4 was used to carry out culturing and evaluation. As compounds, 20 compounds were selected and used among the compounds used in Example 4 including berbamine, and DMSO (0.1%) that is a solvent for the compound was used as a control. Note that in a statistical analysis, a Student's t-test was used (*: p<0.05).
The effect of a berbamine derivative on the proliferation of T cells was verified. As a method therefor, T-iPS-T cells after 1st expansion were cultured in the same manner as in Example 4, and berbamine (BBM) or each of 13 types of derivatives [BBMD1 to 13, Hebei Sundia MediTech Company Ltd.] was added thereto (one type per well) at a final concentration of 0.1 nM, 1 nM, 10 nM, 100 nM, or 1 μM, and then, the cells were cultured at 37° C. under 5% CO2. DMSO (0.1%) that is a solvent for the compound was used as a control.
After culturing for 6 days, the number of viable cells was measured using Cell Count Reagent SF (Nacalai Tesque, 07553) and a microplate reader (SoftMax Pro 5. X, Molecular Devices, 450 nm/650 nm), and the OD value was used as data. Note that in a statistical analysis, a Student's t-test was used (*: p<0.05). 1.

Assay [2] has as its system stem cell memory T cells. The assay is described as follows: Proliferation of sorted stem cell memory T cells, trypan blue count. The class given is cell-based, human. As to conditions: 1 μM, stem cell memory T cells, 6, 9, 12 and 14 days, FIG. 18C. From the text:
NPL 4 reports that hierarchy exists in T cells (FIG. 18A). In this Example, a fraction in which berbamine acts in T cells was verified. As a method therefor, PBMCs (CTL, Inc.) derived from a healthy subject was washed with a staining solution (PBS containing 2% FBS), and then stained with CCR7-APC (BioLegend, 353214), CD45RA-BV510 (BioLegend, 304142), CD45RO-APC-Cy7 (BioLegend, 307228), CD95-PC-Cy7 (BioLegend, 305622), CD8β-PE (Beckman, IM2217U), and CD4-BV421 (BioLegend, 317434).
After washing, the cells were resuspended in the staining solution containing PI, and by using BD AriaII Cell Sorter (BD Bioscience), in the CD8β(+) cells, CCR7(+)CD45RA(+)CD95(−)CD45RO(−) was sorted as naive T cells, CCR7(+)CD45RA(+)CD95(+)CD45RO(+) was sorted as stem cell memory T cells, CCR7(+)CD45RA(−)CD45RO(+) was sorted as central memory T cells, and CCR7(−) CD45RA(−)CD45RO(+) was sorted as effector memory T cells.
The respective cells (about 3,000 cells/well) were seeded, and berbamine (BBM) at 1 μM or MilliQ water that is a solvent for the compound as a control was added thereto, and the cells were stimulated with CD3/CD28 Dynabeads (about 9,000 beads/well). The cells were cultured using the same culture medium as in Example 6.
After 6, 9, 12, and 14 days of culturing, the number of viable cells was counted by a trypan blue method. In a statistical analysis, a Student's t-test was used (*: p<0.05).

For `COc1cc2c3cc1Oc1c(OC)c(OC)cc4c1[C@@H](Cc1ccc(O)c(c1)Oc1ccc(cc1)C[C@@H]3N(C)CC2)N(C)CC4` [berbamine], the “number of viable cells (OD value)” value was 0.257 ± 0.018 in assay [1] (0.1 nM, 6 days); 0.266 ± 0.024 in assay [1] (1 nM, 6 days); 0.275 ± 0.019 * in assay [1] (10 nM, 6 days); 0.282 ± 0.031 * in assay [1] (100 nM, 6 days); 0.505 ± 0.034 *** in assay [1] (1 μM, 6 days). In addition, in assay [1] (1 μM, 20 compounds, Student's t-test, FIG. 11), the “number of cells compared with DMSO (reproducibility of the screening)” value is given as “significant increase in the number of cells”. Further, in assay [1] (1 μM, 6 days, FIG. 6), the “number of viable cells, rank among the 1,080 compounds screened” value is listed as “highest number of viable cells”. Besides, in assay [2], the “number of viable cells compared with MilliQ water” value is listed as “significant enhancement of cell proliferation”.

(Values after patent US12168781B2, “Production method for T cells or NK cells, medium for culturing T cells or NK cells, method for culturing T cells or NK cells, method for maintaining undifferentiated state of undifferentiated T cells, and growth-accelerating agent for T cells or NK cells” (KIRIN HOLDINGS KABUSHIKI KAISHA, priority 2018, dated 2024).)
